Laboratory results published in patent US11066357B2, “Benzoannulene derivatives as antiviral agents” (Southern Research Institute, priority 2017, dated 2021).

How the values were obtained:
[1] = system: CHIKV; test: antiviral activity (EC50), Table 1; type: cell-based; details: Chikungunya virus
[2] = cytotoxicity (CC50), Table 1

With `CCOc1cc2c(cc1C(=O)Nc1ccc(C(C)(C)C)cc1)CCCCC2` [Compound 21, N-(4-(tert.-butyl)phenyl)-3-ethoxy-6,7,8,9-tetrahydro-5H-benzo[7]annulene-2-carboxamide] the EC50 [1] was 29.9 µM and the CC50 [2] was > 40 µM.

For `COc1nc2c(cc1C(=O)Nc1ccc(C(C)(C)C)cn1)CCCCC2` [Compound 37, N-(5-(tert.-butyl)pyridin-2-yl)-2-methoxy-6,7,8,9-tetrahydro-5H-cyclohepta[b]pyridine-3-carboxamide], the EC50 [1] was 13.6 µM and the CC50 [2] was > 40 µM.

For `COc1cc2c(cc1CC(=O)N1CCC(F)(F)CC1)CCCCC2` [Compound 33, 1-(4,4-difluoropiperidin-1-yl)-2-(3-methoxy-6,7,8,9-tetrahydro-5H-benzo[7]annulen-2-yl)ethan-1-one], the EC50 [1] was > 40 µM and the CC50 [2] was > 40 µM.

With `COc1cc2c(cc1CC(=O)N1CCC(C(C)(C)C)CC1)CCCCC2` [Compound 32, 1-(4-(tert.-butyl)piperidin-1-yl)-2-(3-methoxy-6,7,8,9-tetrahydro-5H-benzo[7]annulen-2-yl)ethan-1-one] the EC50 [1] was 12.6 µM and the CC50 [2] was 17.3 µM.

For `COc1cc2c(cc1C(=O)Nc1ccc(C(C)(C)C)cc1)CCCCN2` [Compound 29, N-(4-(tert.-butyl)phenyl)-8-methoxy-2,3,4,5-tetrahydro-1H-benzo[b]azepine-7-carboxamide], the EC50 [1] was 24.4 µM and the CC50 [2] was > 40 µM.

In the case of `COc1cc2c(cc1C(=O)Nc1ccc(N3CCCS3(=O)=O)cc1)CCCCC2` [Compound 20, N-(4-(1,1-dioxidoisothiazolidin-2-yl)phenyl)-3-methoxy-6,7,8,9-tetrahydro-5H-benzo[7]annulene-2-carboxamide], the EC50 [1] is reported as > 5 µM and the CC50 [2] is reported as > 40 µM.

With `COc1cc2c(cc1C(=O)Nc1ccc(C(C)(C)C)cc1)CCCCC2` [Compound 1, N-(4-(tert.-butyl)phenyl)-3-methoxy-6,7,8,9-tetrahydro-5H-benzo[7]annulene-2-carboxamide] the EC50 [1] was 0.32 µM and the CC50 [2] was > 40 µM.

With `COc1cc2c(cc1C(=O)Nc1ccc(-c3ccccc3)cc1)CCCCC2` [Compound 15, N-([1,1′-biphenyl]-4-yl)-3-methoxy-6,7,8,9-tetrahydro-5H-benzo[7]annulene-2-carboxamide] the EC50 [1] was > 40 µM and the CC50 [2] was > 40 µM.

For `CCn1nc(NC(=O)c2cc3c(cc2O)CCCCC3)cc1C` [Compound 27, N-(1-ethyl-5-methyl-1H-pyrazol-3-yl)-3-hydroxy-6,7,8,9-tetrahydro-5H-benzo[7]annulene-2-carboxamide], the EC50 [1] was > 40 µM and the CC50 [2] was > 40 µM.

With `COc1cc2c(cc1C(=O)Nc1sc(C(C)(C)C)cc1C#N)CCCCC2` [Compound 13, N-(5-(tert.-butyl)-3-cyanothiophen-2-yl)-3-methoxy-6,7,8,9-tetrahydro-5H-benzo[7]annulene-2-carboxamide] the EC50 [1] was > 40 µM and the CC50 [2] was > 40 µM.

For `COc1cc2c(cc1C(=O)Nc1ccc(C(C)(C)O)cc1)CCCCC2` [Compound 10, N-(4-(2-hydroxypropan-2-yl)phenyl)-3-methoxy-6,7,8,9-tetrahydro-5H-benzo[7]annulene-2-carboxamide], the EC50 [1] was 1.8 µM and the CC50 [2] was 24.9 µM.

`COc1cc2c(cc1C(=O)Nc1cc(C)n(C(C)(C)C)n1)CCCCC2` [Compound 4, N-(1-(tert.-butyl)-5-methyl-1H-pyrazol-3-yl)-3-methoxy-6,7,8,9-tetrahydro-5H-benzo[7]annulene-2-carboxamide] showed an EC50 [1] of 3.9 µM and a CC50 [2] of 22.3 µM.

With `COc1cc2c(cc1C(=O)Nc1cc(-c3ccccc3)[nH]n1)CCCCC2` [Compound 25, 3-methoxy-N-(5-phenyl-1H-pyrazol-3-yl)-6,7,8,9-tetrahydro-5H-benzo[7]annulene-2-carboxamide] the EC50 [1] was > 40 µM and the CC50 [2] was > 40 µM.

In the case of `COc1cc2c(cc1C(=O)Nc1ncc(C(C)(C)C)s1)CCCCC2` [Compound 8, N-(5-(tert.-butyl)thiazol-2-yl)-3-methoxy-6,7,8,9-tetrahydro-5H-benzo[7]annulene-2-carboxamide], the EC50 [1] is reported as 9.63 µM and the CC50 [2] is reported as > 40 µM.

`CC(C)(C)c1ccc(NC(=O)c2cc3c(cc2O)CCCCC3)cc1` [Compound 2, N-(4-(tert.-butyl)phenyl)-3-hydroxy-6,7,8,9-tetrahydro-5H-benzo[7]annulene-2-carboxamide] showed an EC50 [1] of 1.1 µM and a CC50 [2] of 9.8 µM.

In the case of `COc1cc2c(cc1C(=O)Nc1ccc(C(C)(C)C)cn1)CCCCC2` [Compound 11, N-(5-(tert.-butyl)pyridin-2-yl)-3-methoxy-6,7,8,9-tetrahydro-5H-benzo[7]annulene-2-carboxamide], the EC50 [1] is reported as 1.14 µM and the CC50 [2] is reported as > 40 µM.

With `COc1cc2c(cc1C(=O)NCc1ccc(C(C)(C)C)cc1)CCCCC2` [Compound 18, N-(4-(tert.-butyl)benzyl)-3-methoxy-6,7,8,9-tetrahydro-5H-benzo[7]annulene-2-carboxamide] the EC50 [1] was 3.5 µM and the CC50 [2] was > 40 µM.

In the case of `CCn1nc(NC(=O)c2cc3c(cc2OC)CCCCC3)cc1C` [Compound 5, N-(1-ethyl-5-methyl-1H-pyrazol-3-yl)-3-methoxy-6,7,8,9-tetrahydro-5H-benzo[7]annulene-2-carboxamide], the EC50 [1] is reported as 9.9 µM and the CC50 [2] is reported as > 40 µM.

For `CCc1cc2c(cc1C(=O)Nc1ccc(C(C)(C)C)cc1)CCCCC2` [Compound 22, N-(4-(tert.-butyl)phenyl)-3-ethyl-6,7,8,9-tetrahydro-5H-benzo[7]annulene-2-carboxamide], the EC50 [1] was > 40 µM and the CC50 [2] was > 40 µM.

For `COc1cc2c(cc1C(=O)Nc1cccnc1SC)CCCCC2` [Compound 34, 3-methoxy-N-(2-(methylthio)pyridin-3-yl)-6,7,8,9-tetrahydro-5H-benzo[7]annulene-2-carboxamide], the EC50 [1] was > 40 µM and the CC50 [2] was > 40 µM.

For `COc1nc2c(cc1C(=O)Nc1ccc(C(C)(C)C(=O)O)cc1)CCCCC2` [Compound 40, 2-(4-(2-methoxy-6,7,8,9-tetrahydro-5H-cyclohepta[b]pyridine-3-carboxamido)phenyl)-2-methylpropanoic acid], the EC50 [1] was > 40 µM and the CC50 [2] was > 40 µM.

In the case of `CCn1ccc(NC(=O)c2cc3c(cc2OC)CCCCC3)n1` [Compound 35, N-(1-ethyl-1H-pyrazol-3-yl)-3-methoxy-6,7,8,9-tetrahydro-5H-benzo[7]annulene-2-carboxamide], the EC50 [1] is reported as 17.4 µM and the CC50 [2] is reported as > 40 µM.

In the case of `CC(C)(C)c1ccc(NC(=O)c2cc3c(cc2O)NCCCC3)cc1` [Compound 28, N-(4-(tert.-butyl)phenyl)-8-hydroxy-2,3,4,5-tetrahydro-1H-benzo[b]azepine-7-carboxamide], the EC50 [1] is reported as 1.47 µM and the CC50 [2] is reported as > 40 µM.

With `COc1nc2c(cc1C(=O)Nc1ccc(C(C)(C)C)cc1)CCCCC2` [Compound 36, N-(4-(tert.-butyl)phenyl)-2-methoxy-6,7,8,9-tetrahydro-5H-cyclohepta[b]pyridine-3-carboxamide] the EC50 [1] was 1.71 µM and the CC50 [2] was > 40 µM.

With `COc1cc2c(cc1C(=O)Nc1ccc(C(C)(C)C)s1)CCCCC2` [Compound 7, N-(5-(tert.-butyl)thiophen-2-yl)-3-methoxy-6,7,8,9-tetrahydro-5H-benzo[7]annulene-2-carboxamide] the EC50 [1] was > 40 µM and the CC50 [2] was > 40 µM.

With `COc1cc2c(cc1C(=O)NNc1ccc(C(C)(C)C)cc1)CCCCC2` [Compound 30] the EC50 [1] was > 40 µM and the CC50 [2] was > 40 µM.

With `COc1cc2c(cc1C(=O)Nc1ccc(-c3cc[nH]n3)cc1)CCCCC2` [Compound 19, N-(4-(1H-pyrazol-3-yl)phenyl)-3-methoxy-6,7,8,9-tetrahydro-5H-benzo[7]annulene-2-carboxamide] the EC50 [1] was 3.65 µM and the CC50 [2] was 23.2 µM.

With `CC(C)(C)c1ccc(NC(=O)c2ccc3c(c2)CCCCC3)cc1` [Compound 3, N-(4-(tert.-butyl)phenyl)-6,7,8,9-tetrahydro-5H-benzo[7]annulene-2-carboxamide] the EC50 [1] was 1.09 µM and the CC50 [2] was > 40 µM.

In the case of `COc1cc2c(cc1CC(=O)Nc1ccc(C(C)(C)C)cc1)CCCCC2` [Compound 31, N-(4-(tert.-butyl)phenyl)-2-(3-methoxy-6,7,8,9-tetrahydro-5H-benzo[7]annulen-2-yl)acetamide], the EC50 [1] is reported as 30.4 µM and the CC50 [2] is reported as > 40 µM.

With `CC(C)(C)c1ccc(NC(=O)c2cc3c(cc2OC(F)F)CCCCC3)cc1` [Compound 17, N-(4-(tert.-butyl)phenyl)-3-(difluoromethoxy)-6,7,8,9-tetrahydro-5H-benzo[7]annulene-2-carboxamide] the EC50 [1] was > 40 µM and the CC50 [2] was > 40 µM.

For `COc1cc2c(cc1C(=O)Nc1ccc(C(O)(C(F)(F)F)C(F)(F)F)cc1)CCCCC2` [Compound 12, N-(4-(1,1,1,3,3,3-hexafluoro-2-hydroxypropan-2-yl)phenyl)-3-methoxy-6,7,8,9-tetrahydro-5H-benzo[7]annulene-2-carboxamide], the EC50 [1] was > 40 µM and the CC50 [2] was > 40 µM.

In the case of `CC(C)(C)c1ccc(NC(=O)c2cc3c(cc2O)CCCCC3)nc1` [Compound 23, N-(5-(tert.-butyl)pyridin-2-yl)-3-hydroxy-6,7,8,9-tetrahydro-5H-benzo[7]annulene-2-carboxamide], the EC50 [1] is reported as 3.8 µM and the CC50 [2] is reported as > 40 µM.

For `COc1cc2c(cc1C(=O)Nc1cnc(C(C)(C)C)s1)CCCCC2` [Compound 9, N-(2-(tert.-butyl)thiazol-5-yl)-3-methoxy-6,7,8,9-tetrahydro-5H-benzo[7]annulene-2-carboxamide], the EC50 [1] was > 40 µM and the CC50 [2] was > 40 µM.

For `COc1cc2c(cc1C(=O)Nc1ccc(-c3ccccc3)cn1)CCCCC2` [Compound 16, 3-methoxy-N-(5-phenylpyridin-2-yl)-6,7,8,9-tetrahydro-5H-benzo[7]annulene-2-carboxamide], the EC50 [1] was > 40 µM and the CC50 [2] was > 40 µM.

In the case of `CCn1nc(NC(=O)c2cc3c(nc2OC)CCCCC3)cc1C` [Compound 39, N-(1-ethyl-5-methyl-1H-pyrazol-3-yl)-2-methoxy-6,7,8,9-tetrahydro-5H-cyclohepta[b]pyridine-3-carboxamide], the EC50 [1] is reported as 30.7 µM and the CC50 [2] is reported as > 40 µM.

In the case of `COc1nc2c(cc1C(=O)Nc1ncc(C(C)(C)C)cn1)CCCCC2` [Compound 38, N-(5-(tert.-butyl)pyrimidin-2-yl)-2-methoxy-6,7,8,9-tetrahydro-5H-cyclohepta[b]pyridine-3-carboxamide], the EC50 [1] is reported as 19.4 µM and the CC50 [2] is reported as > 40 µM.

In the case of `COc1cc2c(cc1C(=O)Nc1ccc(C(C)(C)C#N)cc1)CCCCC2` [Compound 24, N-(4-(2-cyanopropan-2-yl)phenyl)-3-methoxy-6,7,8,9-tetrahydro-5H-benzo[7]annulene-2-carboxamide], the EC50 [1] is reported as 0.2 µM and the CC50 [2] is reported as > 40 µM.
